We go through eight molecules from patent US20160039936A1, “FIBROBLAST GROWTH FACTOR RECEPTOR INHIBITION FOR THE TREATMENT OF DISEASE” (UNIVERSITY OF MIAMI, priority 2011, published 2016).

The test system of assay [1] is isolated neonatal rat ventricular cardiac myocytes (NRVM). The assay can be described thus: Surface area (hypertrophy) of isolated NRVM, immunocytochemistry and morphometry (Examples 1-2). In kind it is cell-based. Particulars: for FGF2-induced increase in cell surface area (hypertrophy) in presence of inhibitor: 48 h FGF2, inhibitor pre-treated 60 min at Table 2 concentration; for FGF23-induced increase in cell surface area (hypertrophy) in presence of inhibitor: 48 h FGF23, inhibitor pre-treated 60 min at Table 2 concentration; for cell surface area: 48 h incubation with the FGF alone. The method, then: NRVM were isolated using a standard isolation system (Worthington Biochemical Corporation) (Toraason et al., Toxicology, 56(1):107-117, 1989). Hearts from 1-2 day old Sprague Dawley rats (Charles River) were harvested, minced in calcium- and magnesium-free Hank's Balanced Salt Solution (HBSS), and the tissue digested with 50 μg/ml trypsin at 4° C. for 20-24 hours. Soybean trypsin inhibitor in HBSS was added and the tissue was further digested with collagenase (in Leibovitz L-15 medium) under slow rotation (15 rpm) at 37° C. for 45 minutes. Cells were released by gently triturating the suspension 20 times with a standard 10 ml plastic serological pipette and filtering it twice through a cell strainer (70 μm, BD Falcon). Cells were incubated at room temperature for 20 minutes and spun at 100 g for 5 minutes. The cell pellet was resuspended in plating medium [Dulbecco's Modified Eagle Medium (DMEM; Cellgro) with 17% Media 199 (Invitrogen), 15% fetal bovine serum (FBS; Invitrogen) and 1% penicillin/streptomycin solution (P/S; Invitrogen)]. Cells were counted using a hemocytometer.
Cells were plated on glass and plastic surfaces which were coated with laminin (Invitrogen; 10μg/ml in PBS) at room temperature for 1 hour prior to plating. For immunofluorescence analysis, 1×10^6 cells were seeded per well on glass coverslips in 6-well plates. For protein and RNA isolation, 2×10^6 cells were seeded in 6 cm-culture dishes. Cells were left undisturbed in plating medium at 37° C. for 72 hours and then cultured in maintenance medium (DMEM with 20% Media 199, 1% insulin-transferrin-sodium selenite solution (ITS; Sigma-Aldrich) and 1% P/S) in the presence of 100 μM 5-bromo-2′-deoxyuridine (BrdU; Sigam-Aldrich) to eliminate proliferating non-myocytes resulting in a relatively pure population of isolated cardiac myocytes (Bishopric et al., 1987). After 4 days, isolated cardiac myocytes were cultured in BrdU-containing maintenance medium in the presence of recombinant murine FGF23 (26.1 kDa, 251 amino acids; R&D Systems) or FGF2 (16.2 kDa, 144 amino acids; R&D Systems) for 48 hours.
We analyzed isolated NRVM on laminin-coated glass coverslips by immunocytochemsitry according to our established protocols (Faul et al., Cell Biol., 169(3):415-424, 2005; Faul et al., Cell Biol., 27(23):8215-8227, 2007). The mouse monoclonal antibody against sarcomeric α-actinin (EA-53; Sigma-Aldrich) was used at 1:1000 and Cy3-conjugated goat-anti mouse (Jackson Immuno Research) as secondary antibody at 1:750. To visualize nuclei, fixed cells were incubated with 4′,6-diamidino-2-phenylindole (DAPI; 400 ng/ml in PBS) for 5 minutes. Immunofluorescence images were taken on a Leica TCS-SP5 confocal microscope with a 63× oil objective with a 1.6× zoom. Leica AF6000 fluorescence software was used to measure the cell surface area based on α-actinin-positive staining.
To assess the signaling pathways involved in FGF23- and FGF2-mediated hypertrophy, we analyzed the morphometry of plated cells that were pre-treated with specific inhibitors for 60 minutes prior to the addition of the FGFs at varying concentrations.

Another assay deals with C57BL/6 mice. In words: Intravenous injection of FGFs (with or without Fc-FGFR decoy receptors) in mice. In kind it is in vivo, mouse. The settings on record: 40 μg/kg FGF, ten times over five days. The method, then:
Twelve-week old adult C57BL/6 mice underwent tail vein injections using standard protocols as previously described for the systemic delivery of plasmid DNA (Faul et al., 2008). Briefly, mice were placed in a restrainer and 40 μg/kg of FGF23 dissolved in 200 μl of PBS were injected into the tail vein of 5 mice twice daily with eight hours in between injections for 5 consecutive days. Four mice underwent the same injection schedule using 200 μl of PBS alone as negative control. On the morning of the 6th day, 16 hours after the final tail vein injections, animals were sacrificed and the hearts were isolated and prepared using the same protocol as described above.
Short-axis cardiac sections were used to quantify myocardial thickness by measuring the distance from the inner to the outer myocardial zone at the mid-chamber zone. […] Since klothro-ablated kl/kl mice display severe growth retardation with small hearts (Kuro-o et al., Nature, 390(6655):45-51, 1997), we also measured relative wall thickness calculated as two times the anterior wall thickness divided by left ventricular internal diameter. Total RNA was isolated from flash frozen hearts using TRIzol (Invitrogen) and RT-PCR analyses were performed as described above.
We measured cross-sectional surface area of cardiac myocytes in paraffin-embedded short-axis sections of the heart. Briefly, 7 μm thick sections were deparaffinized according to our established protocols. To specifically label cardiac myocytes, we used mouse monoclonal MF20 antibody against sarcomeric myosin at 1:200 and Cy5-conjugated donkey-anti mouse (Invitrogen) as secondary antibody at 1:400. To visualize nuclei, fixed tissue was incubated with 4′,6-diamidino-2-phenylindole (DAPI; 400 ng/ml in PBS) for 5 minutes. To visualize cellular borders, fixed tissue was incubated with wheat germ agglutinin (WGA) conjugated to Alexa Fluor 555 (Invitrogen) at 1 mg/ml in PBS containing 10 mM sodium azide. Immunofluorescence images were taken on a Leica TCS-SP5 confocal microscope with a 63× oil objective. Leica AF6000 fluorescence software was used to quantify cross-sectional cell surface area of 25 cells per field at four fields along the mid-chamber free wall based on WGA-positive staining.
Next, we wanted to determine the effectiveness of this FGFR trapping system on FGF-induced LVH in mice. To our knowledge, Fc decoy receptors have not yet been used to study FGFR function in vivo in any biological context, but served as valuable tools to analyze the functions of other receptor tyrosine kinases, like receptors for vascular endothelial growth factor (VEGFR) and their role in tumor growth and metastasis. We used similar Fc-FGFR concentrations as described for Fc-VEGFR in animal models of cancer (Lin J et al., Cancer Res. 2005; 65(15):6901-9).

For assay [2], the system named is neonatal mouse ventricular myocytes (NMVM). In words: Hypertrophic growth and β-MHC of isolated NMVM (wild-type or FGFR4−/−). It is filed as cell-based. Particulars: 48 h. Here is the method: NMVM were isolated enzymatically (Kreusser et al., 2014). Briefly, hearts from 1-3 day-old mice were harvested, minced in PBS/glucose and further digested with collagenase type 2 (0.2% w/v) and DNase (0.05% w/v) on a rotary shaker at 37° C. for 11 minutes. Cells were then released from the tissue by triturating the suspension twice with a standard 10 ml plastic serological pipette, transferred to DF10 medium (Dulbecco's Modified Eagle Medium/Ham's Nutrient Mixture F12 adjusted to 17 mM NaHCO2 containing 2 mM L-glutamine, 1% P/S and 10% FBS), and stored on ice. The remaining tissue was further incubated in PBS/glucose/collagenase/DNase solution on a rotary shaker at 37° C. for 11 minutes. The trituration and incubation steps were repeated 5-7 times until the tissue was completely dissolved. Cells were pelleted at 300 g for 5 minutes, resuspended in DF20 media (Dulbecco's Modified Eagle Medium/Ham's Nutrient Mixture F12 adjusted to 17 mM NaHCO2 containing 2 mM L-glutamine, 1% P/S and 20% FBS), and preplated for 1 hour to eliminate fibroblasts. Remaining cells were counted using a hemocytometer and plated on glass and plastic surfaces, which were coated with laminin (Sigma-Aldrich; 10 μg/ml in PBS) at room temperature for 1 hour prior to plating. For immunofluorescence analysis, 3×10^5 cells were seeded per well on glass coverslips in 24-well plates. For Western blot analyses of total protein extracts, 5×10^6 cells were seeded in 10 cm-culture dishes. Cells were left undisturbed in DF20 medium at 37° C. for 72 hours, starved overnight with DF medium (Dulbecco's Modified Eagle Medium/Ham's Nutrient Mixture F12 adjusted to 17 mM NaHCO2 containing 2 mM L-glutamine, 1% P/S), and treated in DF medium with recombinant FGF23, FGF2 (both at 100 ng/ml) or AngII (1 μM, Sigma-Aldrich) for 48 hours.
HEK293 cells, NRVM or NMVM were treated with growth factors for 30 minutes to analyze activation of signal transduction mediators, or for 48 hours to analyze expression levels of hypertrophic marker proteins. Cells were scraped from 6-well plates using 500 μl CHAPS extraction buffer (20 mM Tris-HCl pH7.5, 500 mM NaCl, 0.5% CHAPS, protease inhibitor cocktail (Roche), protein phosphatase inhibitors [Sigma-Aldrich]) and incubated on ice for 30 minutes. The cell lysate was centrifuged at 14,000 rpm and 4° C. for 30 minutes, and the supernatant boiled in sample buffer and analyzed by SDS-PAGE and immunoblotting. For protein extraction from mouse hearts, tissue was isolated, minced and homogenized in RIPA extraction buffer (50 mM Tris-HCl pH 7.5, 200 mM NaCl, 1% Triton X-100, 0.25% DOC, 1 mM EDTA, 1 mM EGTA, protease and phosphatase inhibitors) at 1:10 (w:v), and protein lysates were prepared as described above.
Cultured cells were fixed in 2% PFA (in 5 mg/ml sucrose) for 5 minutes and permeabilized in 1% Triton X-100 (in PBS) for 10 minutes. We analyzed hypertrophic growth of isolated NRVM and NMVM on laminin-coated glass coverslips after 48 hours of treatment with growth factors. For FGFR4 expression and localization analyses, untreated NMVM from wild-type and FGFR4^−/− mice were immunolabeled. The mouse monoclonal antibody against sarcomeric α-actinin (EA-53; Sigma-Aldrich) was used at 1:1,000, and rabbit polyclonal anti-FGFR4 (C-16; Santa Cruz) at 1:50. Cy3-conjugated goat-anti mouse and Alexa488-conjugated goat-anti rabbit (Jackson Immuno Research) were used as secondary antibodies at 1:300. To visualize nuclei, fixed cells were incubated with 4′,6-diamidino-2-phenylindole (DAPI; 400 ng/ml in PBS) for 10 minutes. Immunofluorescence images were taken on a Leica TCS-SP5 confocal microscope with a 63× oil objective.
Myocyte cross-sectional area was measured based on α-actinin-positive staining using Leica AF6000 fluorescence software. […]

Entries after “also recorded” stand apart in the source; their conditions may differ.

`O=c1[nH]c2ccccc2n1C1CCN(Cc2ccc(-c3nc4cc5nc[nH]c5cc4nc3-c3ccccc3)cc2)CC1` [A6730]: in assay [1], the “FGF2-induced increase in cell surface area (hypertrophy) in presence of inhibitor” value (“FGF2-induced increase … of inhibitor” below) is recorded as “partially attenuated” and the “FGF23-induced increase in cell surface area (hypertrophy) in presence of inhibitor” value (“FGF23-induced increase … of inhibitor” below) was “did not significantly alter”.

Turning to `COc1cccc(-c2cc(=O)c3ccccc3o2)c1N` [PD98059], in assay [1], the “FGF2-induced increase … of inhibitor” value is recorded as “completely prevented” and the “FGF23-induced increase … of inhibitor” value is “only partially diminished”.

As for `N#CC(=C(/N)Sc1ccccc1N)/C(C#N)=C(\N)Sc1ccccc1N` [U0126], in assay [1], the “FGF2-induced increase … of inhibitor” value was “completely prevented” and the “FGF23-induced increase … of inhibitor” value was “only partially diminished”.

Take `COc1ccc2c(c1)CC[C@@H]1[C@@H]2CC[C@]2(C)[C@@H](NCCCCCCN3C(=O)C=CC3=O)CC[C@@H]12` [U73122]: in assay [1], the “FGF2-induced increase … of inhibitor” value is “had no effect” and the “FGF23-induced increase … of inhibitor” value is reported as “attenuated”.

Consider FGF4, for which the cell surface area result in assay [1] is reported as “no change in size; also recorded: did not induce a hypertrophic response”.

Turning to “FGF19: endocrine fibroblast growth factor 19”, the “induction of LVH” value in the assay on C57BL/6 mice was “significant induction of LVH”. For the same molecule, the cell surface area entry in assay [1] is on record as “significant dose-dependent increase”.

“angiotensin (Ang) II [AngII, pro-hypertrophic angiotensin II (Sigma-Aldrich), reference compound]”: in assay [2] (immunoblot), the “expression of β-MHC protein in FGFR4−/− NMVM” value is “induced this effect” and the “expression of β-MHC protein in wild-type NMVM” value is “increased expression”. In assay [2] (FGF 100 ng/ml, AngII 1 μM), the “cross-sectional area (size) of NMVM from FGFR4−/− mice” value was “increase the size” and the “cross-sectional area of wild-type NMVM” value is on record as “significant increases”.

B1: FGF21: endocrine fibroblast growth factor 21 (protein, UniProt Q9NSA1 29-209, looked up)
Fibroblast growth factor 21: HPIPDSSPLLQFGGQVRQRYLYTDDAQQTEAHLEIREDGTVGGAADQSPESLLQLKALKPGVIQILGVKTSRFLCQRPDGALYGSLHFDPEACSFRELLLEDGYNVYQSEAHGLPLHLPGNKSPHRDPAPRGPARFLPLPGLPPALPEPPGILAPQPPDVGSSDPLSMVGPSQGRSPSYAS
For the molecule B1, the “induction of LVH” value with C57BL/6 mice was “significant induction of LVH”. Besides, in assay [1], the cell surface area result is listed as “significant dose-dependent increase”.
